Data from patent publication US20210369853A1, “TARGETED PROTEASE DEGRADATION PLATFORM” (EUBULUS BIOTHERAPEUTICS INC., priority 2018, published 2021).
Read-outs that look alike come from different tables or passages of the source. One block for each compound: values may come before it.

Tests used:
Type in all cases: cell-based
[1] = system: Human Colon Cancer HCT-116; assay: Cell proliferation experiment (Alarm blue, 72 h, EC50); conditions: Homo sapiens, HCT-116; HCT116 cells
Procedure, shortened: (§1)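 Log-phase cells, passaged at least 2 generations, were seeded in 96-well plates and exposed to test compound in complete medium as a 5-fold dilution series in duplicate for 72 h. Fluorescence was read by Alamar blue and EC50 fitted to a four-parameter curve (Min, Max, Slope).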

[2] = system: Human Monocytic Leukemia MV4-11; assay: as above; conditions: Homo sapiens
Procedure, shortened: as §1

BRD4 = biological target: T1, BRD4 (Homo sapiens, UniProt O60885); assay: Western blot, protein degradation (DC50)
T1 construct: endogenous in cells
Procedure: (§2) Cells were treated with the compound for a period of time, after that the cells were collected by centrifugation. After washing with PBS, the cells were lysed by adding RIPA buffer; the cell lysate were added to the loading buffer and then appropriate volume were taken and slowly added to the corresponding wells of the gel plate, and run the SDS-PAGE gel (4%-12%). After running the gel, transferred to the PVDF membrane and sealed with 5% skimmed milk powder at room temperature for 1 hour. The membrane was placed in the primary antibody diluted with 5% skimmed milk powder and shaked slowly overnight at 4° C. After incubation with primary antibody, the membrane was washed 3 times using a TBST shaker; added secondary antibody diluted with 5% skimmed milk powder corresponding to the primary antibody, and shaked slowly at room temperature for 1 hour. After incubation with secondary antibody, the membrane was washed 3 times using the TBST shaker again. The PVDF membrane was flatted in the cassette, the strip was evenly infiltrated with ECL developer solution, and placed in ChemDoc XRS+ gel imager for taking pictures. The intensity of protein bands was analyzed quantitatively using ImageJ software.

PLK1 = biological target: T2, PLK1 (Homo sapiens, UniProt P53350); assay: Western blot, protein degradation (DC50)
T2 construct: endogenous in cells
T2 sequence (P53350 whole entry): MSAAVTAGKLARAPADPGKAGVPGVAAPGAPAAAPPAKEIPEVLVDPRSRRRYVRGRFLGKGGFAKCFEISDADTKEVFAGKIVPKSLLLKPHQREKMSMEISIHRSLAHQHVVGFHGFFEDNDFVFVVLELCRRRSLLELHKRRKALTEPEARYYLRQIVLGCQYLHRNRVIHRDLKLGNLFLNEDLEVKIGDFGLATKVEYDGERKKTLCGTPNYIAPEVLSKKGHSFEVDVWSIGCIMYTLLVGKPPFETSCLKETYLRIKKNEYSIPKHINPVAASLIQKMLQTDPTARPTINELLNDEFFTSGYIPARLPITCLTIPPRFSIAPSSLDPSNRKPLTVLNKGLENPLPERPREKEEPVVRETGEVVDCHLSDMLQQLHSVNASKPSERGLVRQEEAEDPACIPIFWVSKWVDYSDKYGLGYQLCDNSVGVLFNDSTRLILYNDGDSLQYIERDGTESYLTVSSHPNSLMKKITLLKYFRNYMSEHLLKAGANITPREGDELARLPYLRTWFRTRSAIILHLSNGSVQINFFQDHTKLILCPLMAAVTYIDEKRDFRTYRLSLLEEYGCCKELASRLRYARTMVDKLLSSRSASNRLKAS
Procedure: as §2

[3] = 24 h, read-out: BRD4 DC50 (24 h)
[4] = 24 h, western blot, read-out: BRD4 DC50 (24 h)
[5] = 24 h, western blot, read-out: PLK1 DC50 (24 h)
[6] = 6 h, western blot, read-out: BRD4 DC50 (6 h)
[7] = 6 h, western blot, read-out: PLK1 DC50 (6 h)

SMILES: O=C1CCC(N2Cc3c(NC(=O)CCNC(=O)[C@]4(Cc5cccc(Nc6nccs6)n5)CC[C@@H](Oc5cccc(Cl)c5F)CC4)cccc3C2=O)C(=O)N1 (some centres unmarked) [UB-180616]
EC50 [1]: > 1000 nM
EC50 ([2]; MV4-11, MV4;11 cells): > 1000 nM

SMILES: O=C1CCC(N2Cc3c(NC(=O)CCNC(=O)c4ccc(Nc5ncc6c(n5)-c5ccc(Cl)cc5C(c5c(F)cccc5F)=NC6)cc4)cccc3C2=O)C(=O)N1 (centres unmarked) [UB-180617]
EC50 [1]: > 1000 nM
EC50 ([2]; MV4-11, MV4;11 cells): > 1000 nM

SMILES: CC[C@@H]1C(=O)N(C)c2cnc(Nc3ccc(C(=O)NCCOCCOCCOCCNCCCC(=O)Nc4cccc5c4CN(C4CCC(=O)NC4=O)C5=O)cc3OC)nc2N1C1CCCC1 (some centres unmarked) [UB-180636]
EC50 ([2]; MV4;11 cells): 10 to 100 nM
DC50 (BRD4; 6 h, read-out: BRD4 DC50 (6 h)): 10 to 100 nM
DC50 (PLK1; 6 h, read-out: PLK1 DC50 (6 h)): 10 to 100 nM

SMILES: Cc1sc2c(c1C)C(c1ccc(Cl)cc1)=N[C@@H](CC(=O)NCCCNCCCC(=O)Nc1cccc3c1CN(C1CCC(=O)NC1=O)C3=O)c1nnc(C)n1-2 (some centres unmarked) [UB-180640]
EC50 [1]: > 1000 nM
EC50 ([2]; MV4-11, MV4;11 cells): 100 to 1000 nM

SMILES: Cc1sc2c(c1C)C(c1ccc(Cl)cc1)=N[C@@H](CC(=O)NCCCNCCCCC(=O)Nc1cccc3c1CN(C1CCC(=O)NC1=O)C3=O)c1nnc(C)n1-2 (some centres unmarked) [UB-180641]
EC50 [1]: > 1000 nM
EC50 ([2]; MV4-11, MV4;11 cells): 100 to 1000 nM

SMILES: Cc1sc2c(c1C)C(c1ccc(Cl)cc1)=N[C@@H](CC(=O)NCCCNCCCCCC(=O)Nc1cccc3c1CN(C1CCC(=O)NC1=O)C3=O)c1nnc(C)n1-2 (some centres unmarked) [UB-180642]
EC50 [1]: > 1000 nM
EC50 ([2]; MV4-11, MV4;11 cells): 100 to 1000 nM

SMILES: CC[C@@H]1C(=O)N(C)c2cnc(Nc3ccc(C(=O)NCCCNCCCCCC(=O)Nc4cccc5c4CN(C4CCC(=O)NC4=O)C5=O)cc3OC)nc2N1C1CCCC1 (some centres unmarked) [UB-180659]
EC50 ([2]; MV4;11 cells): 10 to 100 nM
DC50 (BRD4; [4]): < 10 nM
DC50 (PLK1; [5]): 100 to 1000 nM

SMILES: CC[C@@H]1C(=O)N(C)c2cnc(Nc3ccc(C(=O)NCCOCCOCCOCCNCC(=O)Nc4cccc5c4CN(C4CCC(=O)NC4=O)C5=O)cc3OC)nc2N1C1CCCC1 (some centres unmarked) [UB-180663]
EC50 ([2]; MV4;11 cells): 10 to 100 nM
DC50 (BRD4; [6]): < 10 nM
DC50 (BRD4; [4]): < 10 nM
DC50 (PLK1; [7]): < 10 nM
DC50 (PLK1; [5]): < 10 nM

The next lines start with the values.

EC50 ([2]; MV4-11, MV4;11 cells): 10 to 100 nM
DC50 (BRD4; [3]): < 10 nM
SMILES: CC[C@@H]1C(=O)N(C)c2cnc(Nc3ccc(C(=O)NCCCOCC(N)COCCC(=O)Nc4cccc5c4CN(C4CCC(=O)NC4=O)C5=O)cc3OC)nc2N1C1CCCC1 (some centres unmarked) [UB-180624]

EC50 [1]: > 1000 nM
EC50 ([2]; MV4-11, MV4;11 cells): 100 to 1000 nM
SMILES: Cc1sc2c(c1C)C(c1ccc(Cl)cc1)=N[C@@H](CC(=O)NCCCNCCCCCCC(=O)Nc1cccc3c1CN(C1CCC(=O)NC1=O)C3=O)c1nnc(C)n1-2 (some centres unmarked) [UB-180629]

EC50 [1]: > 1000 nM
EC50 ([2]; MV4-11, MV4;11 cells): 100 to 1000 nM
SMILES: Cc1sc2c(c1C)C(c1ccc(Cl)cc1)=N[C@@H](CC(=O)NCCCNCCCCCCCC(=O)Nc1cccc3c1CN(C1CCC(=O)NC1=O)C3=O)c1nnc(C)n1-2 (some centres unmarked) [UB-180630]

EC50 ([2]; MV4-11, MV4;11 cells): 10 to 100 nM
DC50 (BRD4; [3]): < 10 nM
DC50 (PLK1; 24 h, read-out: PLK1 DC50 (24 h)): 10 to 100 nM
SMILES: CC[C@@H]1C(=O)N(C)c2cnc(Nc3ccc(C(=O)NCCCNCCCCCCC(=O)Nc4cccc5c4CN(C4CCC(=O)NC4=O)C5=O)cc3OC)nc2N1C1CCCC1 (some centres unmarked) [UB-180631]

EC50 ([2]; MV4-11, MV4;11 cells): 10 to 100 nM
DC50 (BRD4; 6 h, read-out: BRD4 DC50 (6 h)): < 10 nM
DC50 (PLK1; 6 h, read-out: PLK1 DC50 (6 h)): < 10 nM
SMILES: CC[C@@H]1C(=O)N(C)c2cnc(Nc3ccc(C(=O)NCCCNCCCCCCCC(=O)Nc4cccc5c4CN(C4CCC(=O)NC4=O)C5=O)cc3OC)nc2N1C1CCCC1 (some centres unmarked) [UB-180632]

EC50 ([2]; MV4-11, MV4;11 cells): 10 to 100 nM
DC50 (BRD4; [4]): < 10 nM
DC50 (PLK1; [5]): 10 to 100 nM
SMILES: CC[C@@H]1C(=O)N(C)c2cnc(Nc3ccc(C(=O)NCCOCCOCCOCCNCCCCC(=O)Nc4cccc5c4CN(C4CCC(=O)NC4=O)C5=O)cc3OC)nc2N1C1CCCC1 (some centres unmarked) [UB-180666]

EC50 ([2]; MV4-11, MV4;11 cells): 10 to 100 nM
DC50 (BRD4; [6]): 10 to 100 nM
DC50 (PLK1; [7]): 10 to 100 nM
SMILES: CC[C@@H]1C(=O)N(C)c2cnc(Nc3ccc(C(=O)NCCCNCCCCC(=O)Nc4cccc5c4CN(C4CCC(=O)NC4=O)C5=O)cc3OC)nc2N1Cc1ccc(Cl)s1 (some centres unmarked) [UB-180673]

EC50 ([2]; MV4-11, MV4;11 cells): < 10 nM
DC50 (BRD4; [6]): < 10 nM
DC50 (PLK1; [7]): < 10 nM
SMILES: CC[C@@H]1C(=O)N(C)c2cnc(Nc3ccc(C(=O)NCCCNCCCCCCCC(=O)Nc4cccc5c4CN(C4CCC(=O)NC4=O)C5=O)cc3OC)nc2N1Cc1ccc(Cl)s1 (some centres unmarked) [UB-180674]

EC50 ([2]; MV4-11, MV4;11 cells): 10 to 100 nM
DC50 (BRD4; [4]): < 10 nM
DC50 (PLK1; [5]): 10 to 100 nM
SMILES: CC[C@@H]1C(=O)N(C)c2cnc(Nc3ccc(C(=O)NC4CCN(CCNCCOCC(=O)Nc5cccc6c5CN(C5CCC(=O)NC5=O)C6=O)C4)cc3OC)nc2N1C1CCCC1 (some centres unmarked) [UB-180703]

EC50 [1]: 100 to 1000 nM
EC50 ([2]; MV4-11, MV4;11 cells): < 10 nM
SMILES: CC[C@@H]1C(=O)N(C)c2cnc(Nc3ccc(C(=O)NC4CCN(CCOCCN(CC)CC(=O)Nc5cccc6c5CN(C5CCC(=O)NC5=O)C6=O)CC4)cc3OC)nc2N1C1CCCC1 (some centres unmarked) [UB-180828]
